The source of these data is ChEMBL document CHEMBL5463729, “Data for DCP probe BAY 1753011” (2023).

Assay [1] concerns the target 5'-AMP-activated protein kinase catalytic subunit alpha-2 (Homo sapiens) (UniProt P54646). As to the kind of experiment: Inhibition of AMPKalpha2(h) at 10.0 µM in the Eurofins Kinase panel. Particulars: Compound concentration 10.0 uM.
For assay [2], the target named is Sodium-dependent dopamine transporter (Homo sapiens) (UniProt Q01959). Particulars: Compound concentration 10.0 uM.
For assay [3], the target named is Sodium-dependent noradrenaline transporter (Homo sapiens, UniProt P23975). The assay can be described thus: GPCRScan assay: inhibition of NET. The arrangement: radioligand conc. used [nm] 1.3 – 5.0, parental cells stable HEK.
The target in assay [4] is GABA-A receptor; anion channel. The assay can be described thus: GPCRScan assay: inhibition of GABAA/BZP. The arrangement: radioligand conc. used [nm] 0.6 – 4.0, parental cells brain tissue. The assay is classed as protein-complex assay, Rattus norvegicus.
Assay [5] has as its target T1, D(4) dopamine receptor (Homo sapiens) (UniProt P21917).
T1 sequence (whole entry): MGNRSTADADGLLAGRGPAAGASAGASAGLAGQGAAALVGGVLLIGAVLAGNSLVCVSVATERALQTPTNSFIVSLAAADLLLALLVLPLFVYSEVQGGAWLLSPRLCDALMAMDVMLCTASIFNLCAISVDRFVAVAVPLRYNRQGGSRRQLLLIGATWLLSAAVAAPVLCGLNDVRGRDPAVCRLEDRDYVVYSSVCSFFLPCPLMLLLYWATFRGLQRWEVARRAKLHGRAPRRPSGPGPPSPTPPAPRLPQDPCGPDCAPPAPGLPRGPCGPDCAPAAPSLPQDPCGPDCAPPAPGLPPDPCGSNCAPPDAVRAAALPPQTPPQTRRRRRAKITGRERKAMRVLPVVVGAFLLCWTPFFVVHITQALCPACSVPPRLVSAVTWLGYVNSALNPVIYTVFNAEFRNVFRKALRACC
The assay can be described thus: Inhibition of Dopamine D4.2 at 10 µM in the Eurofins-Panlabs radioligand binding assay (Eurofins_assay_219900). The arrangement: ligand concentration 0.5 nM. Particulars: Compound concentration 10.0 uM.

Assay [6] deals with Platelet-activating factor receptor (Homo sapiens) (UniProt P25105). The assay can be described thus: Inhibition of Platelet Activating Factor (PAF) at 10 µM in the Eurofins-Panlabs radioligand binding assay (Eurofins_assay_265010). Particulars: Compound concentration 10.0 uM.
The target of assay [7] is cAMP-dependent protein kinase catalytic subunit beta (Homo sapiens) (UniProt P22694). The assay can be described thus: Inhibition of PKACbeta(h) at 10.0 µM in the Eurofins Kinase panel. Particulars: Compound concentration 10.0 uM.
Assay [8] addresses Purinergic P2Y (Rattus norvegicus) (UniProt O35811+Q9EPX4+P49651+Q63371+P41232+O35881+Q6GUG4). Particulars: Compound concentration 10.0 uM.

Sequence of Sodium-dependent noradrenaline transporter (P23975 whole entry): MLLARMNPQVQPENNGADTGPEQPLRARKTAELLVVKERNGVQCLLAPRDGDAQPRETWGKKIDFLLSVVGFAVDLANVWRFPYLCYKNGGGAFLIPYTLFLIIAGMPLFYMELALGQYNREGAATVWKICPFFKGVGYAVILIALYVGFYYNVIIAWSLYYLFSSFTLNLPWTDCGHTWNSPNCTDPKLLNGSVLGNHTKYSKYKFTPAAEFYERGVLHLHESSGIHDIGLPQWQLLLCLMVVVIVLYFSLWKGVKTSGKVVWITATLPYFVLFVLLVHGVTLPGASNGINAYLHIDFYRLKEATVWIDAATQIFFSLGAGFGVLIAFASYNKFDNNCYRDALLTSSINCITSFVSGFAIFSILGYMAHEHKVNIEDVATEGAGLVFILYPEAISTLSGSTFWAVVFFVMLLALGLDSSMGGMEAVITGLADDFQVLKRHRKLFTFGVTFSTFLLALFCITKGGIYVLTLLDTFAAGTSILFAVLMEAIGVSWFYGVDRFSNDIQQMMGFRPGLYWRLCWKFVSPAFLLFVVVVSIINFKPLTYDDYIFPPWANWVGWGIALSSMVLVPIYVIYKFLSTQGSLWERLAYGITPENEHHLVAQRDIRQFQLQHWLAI
Sequence of Sodium-dependent dopamine transporter (Homo sapiens) (Q01959 whole entry): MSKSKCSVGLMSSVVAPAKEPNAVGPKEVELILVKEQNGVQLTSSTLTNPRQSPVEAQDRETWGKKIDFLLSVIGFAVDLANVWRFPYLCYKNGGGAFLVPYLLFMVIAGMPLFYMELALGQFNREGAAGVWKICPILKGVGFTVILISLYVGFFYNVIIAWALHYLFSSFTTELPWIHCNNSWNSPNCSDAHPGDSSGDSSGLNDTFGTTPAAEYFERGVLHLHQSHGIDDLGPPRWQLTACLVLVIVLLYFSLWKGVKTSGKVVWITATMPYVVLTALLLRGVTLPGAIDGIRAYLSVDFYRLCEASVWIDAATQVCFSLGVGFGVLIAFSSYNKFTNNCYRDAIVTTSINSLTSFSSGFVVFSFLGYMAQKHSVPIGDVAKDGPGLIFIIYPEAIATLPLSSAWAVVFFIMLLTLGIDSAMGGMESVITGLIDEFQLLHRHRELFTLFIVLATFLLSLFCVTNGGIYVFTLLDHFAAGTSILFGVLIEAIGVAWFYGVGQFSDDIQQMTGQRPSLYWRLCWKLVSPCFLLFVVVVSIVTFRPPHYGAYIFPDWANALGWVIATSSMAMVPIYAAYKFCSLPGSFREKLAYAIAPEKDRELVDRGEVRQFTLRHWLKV
Sequence of Platelet-activating factor receptor (Homo sapiens) (P25105 whole entry): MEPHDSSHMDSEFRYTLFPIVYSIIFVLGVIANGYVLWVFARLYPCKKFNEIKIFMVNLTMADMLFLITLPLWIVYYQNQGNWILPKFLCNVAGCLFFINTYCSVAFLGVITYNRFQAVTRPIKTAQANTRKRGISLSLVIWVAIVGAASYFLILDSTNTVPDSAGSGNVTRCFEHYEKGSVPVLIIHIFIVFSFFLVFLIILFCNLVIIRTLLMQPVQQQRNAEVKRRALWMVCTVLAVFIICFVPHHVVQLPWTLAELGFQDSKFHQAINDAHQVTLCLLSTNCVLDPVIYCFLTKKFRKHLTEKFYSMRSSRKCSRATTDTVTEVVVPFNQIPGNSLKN
Sequence of 5'-AMP-activated protein kinase catalytic subunit alpha-2 (Homo sapiens) (P54646 whole entry, looked up): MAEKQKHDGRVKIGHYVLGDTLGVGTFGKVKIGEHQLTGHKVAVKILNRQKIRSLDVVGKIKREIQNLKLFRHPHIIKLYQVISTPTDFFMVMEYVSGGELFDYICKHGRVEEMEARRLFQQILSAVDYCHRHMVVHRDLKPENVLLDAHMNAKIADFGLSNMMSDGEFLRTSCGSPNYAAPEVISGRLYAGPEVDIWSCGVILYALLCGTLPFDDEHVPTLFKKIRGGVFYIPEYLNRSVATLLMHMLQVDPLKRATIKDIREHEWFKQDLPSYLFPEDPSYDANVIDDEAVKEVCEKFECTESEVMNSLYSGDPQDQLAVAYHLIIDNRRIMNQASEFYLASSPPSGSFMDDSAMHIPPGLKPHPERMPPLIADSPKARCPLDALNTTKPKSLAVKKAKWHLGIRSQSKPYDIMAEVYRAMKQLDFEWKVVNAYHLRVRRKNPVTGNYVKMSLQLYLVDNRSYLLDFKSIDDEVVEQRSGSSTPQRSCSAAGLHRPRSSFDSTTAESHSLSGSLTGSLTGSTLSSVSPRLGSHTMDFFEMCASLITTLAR

Consider `O=c1n(Cc2cncn2-c2cccc(Cl)c2)nc(-c2ccc(Cl)cc2)n1C[C@H](O)C(F)(F)F`, for which the inhibition in assay [1] is -2.83%; in assay [2], 4.92%.
In the case of `C[C@H](O)c1nc(Cn2nc(-c3ccc(Cl)cc3)n(C[C@H](O)C(F)(F)F)c2=O)nn1-c1cccc(Cl)c1` [PECAVAPTAN], the Ki in assay [3] (read-out: Ki) is 1320 nM; in assay [3] (read-out: pKi (converted)), 1320 nM; in assay [4] it was 2610 nM. The pKi in assay [4] was 5.58. In addition, the inhibition in assay [5] was 3%; in assay [6], 17%; in assay [7] it was -5.07%; in assay [8], 0%.

By inhibition is commonly meant the relative decrease from the control value, in per cent. What is called pKi is −log10 of the Ki, conventionally taken in molar units.
